Measured values reported in EP0155872A1, “Process for reducing the lignin content of plants, and compositions for putting it into use” (priority 1984, dated 1985).
“Also recorded” adds a separate entry of the source. Where two headings read alike, the source gives them in different places.

Legend:
CAD de peuplier = molecular target: T1, CAD de peuplier (Populus deltoides, UniProt P31657); assay: In vitro inhibition of isolated poplar cinnamyl alcohol dehydrogenase (CAD) at 2 mM; assay type: biochemical; details: for inhibition at 2000 µM / Inhibition à 2mM %: 2mM, CAD de peuplier; for inhibition at 2000 µM: read-out: Inhibition à 2mM %
T1 construct: CAD de peuplier isolée selon la méthode deSARNI et al,1984; from tissue; host or cells: poplar plant material
T1 sequence (P31657 1-357): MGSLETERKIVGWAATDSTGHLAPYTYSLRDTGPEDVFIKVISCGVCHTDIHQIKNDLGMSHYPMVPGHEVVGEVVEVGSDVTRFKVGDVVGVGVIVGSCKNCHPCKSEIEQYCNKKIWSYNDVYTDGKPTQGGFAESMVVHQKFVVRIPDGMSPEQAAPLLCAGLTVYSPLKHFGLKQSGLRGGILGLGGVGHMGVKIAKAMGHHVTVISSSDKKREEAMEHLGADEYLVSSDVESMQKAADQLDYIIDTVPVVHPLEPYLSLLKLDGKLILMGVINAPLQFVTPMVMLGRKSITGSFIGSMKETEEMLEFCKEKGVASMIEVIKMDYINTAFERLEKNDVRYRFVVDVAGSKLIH
Description: Après réacidification à pH2 par de l'acide chlorhydrique 3N et centrifugation, le surnageant contenant les acides cinnamiques est séparé du résidu. Les "poudres alcool-benzène" ainsi hydrolysées sont lavées par de l'eau distillée jusqu'à pH neutre et séchées, sous vide dans un dessiccateur en présence de silica.-gel. Les teneurs en lignines sont estimées par la méthode gravimétriques de KLASON (Tappi Standard method Tl2m) modifiée par EFFLAND. Tappi, 60, p 143-144, 1977. On rapporte dans le tableau 1) suivant les résultats obtenus concernant l'effet mesuré in vitro d'inhibiteurs selon l'invention à une concentration de 2mM vis-à-vis de la CAD de peuplier isolée selon la méthode deSARNI et al,1984,EUROP JOURNAL OF BIOCHEMISTRY, 18(1),139, 259-265 On indique également dans ce tableau les résultats obtenus avec des composés portant des substitutions différentes de ceux mis enoe uvre dans l'invention. Les chiffres indiqués entre parenthèses a côté des formules correspondent aux composés identifiés dans les exemples de préparation 2 et 3.
On rapporte dans le tableau 2 suivant les pourcentages d'inhibition de la CAD obtenus en utilisant, à raison de 2 mM, différents composés capables de complexer Zn.

cultures de tabac = details: prior art; cited from earlier work
CAD = molecular target: T2, CAD (Populus deltoides, UniProt P31657); assay: In vitro CAD activity with nitro derivatives, physiological direction (aldehyde reduction, NADPH oxidation at 340 nm); assay type: biochemical; details: read-out: % d'inhibition (activité CAD); for inhibition at 230 µM: Concentration finale dans le milieu 0,230 mM; for inhibition at 375 µM: Concentration finale dans le milieu 0,375 mM
T2 sequence (P31657 1-357): T1 sequence (P31657 1-357)
Description: η) Effets des dérivés nitrés sur l'activité CAD "in vitro". Concentration finale % d'inhibition
Les mesures ont été réalisées dans le sens physiologique (aldéhyde alcool), c'est-à-dire en suivant la réduction de l'aldéhyde (oxydation du NADPH mesurée à 340 nm).(Les tests sont plus sensibles et plus proches du milieu "in vivo".

## CC(C)(C)OC(=O)CS(=O)(=O)Nc1ccccc1 [composé 7a, N-(phényl)sulfamoyl acétate de tertiobutyle]
CAD de peuplier
  inhibition at 2000 µM: 50%

## CC(C)(C)OC(=O)CC(=O)Nc1ccccc1 [PCAD, Phényl(carbamoyl) acétate de tertiobutyle, reference compound]
CAD de peuplier
  inhibition at 2000 µM: 0%

## CC(C)(C)OC(=O)C(C)(C)[S+]([O-])Nc1ccccc1 (stereo not shown) [compound 15, N-(Phényl)sulfinamoyl isobutyrate de tertiobutyle]
CAD de peuplier
  inhibition at 2000 µM: 0%
CAD de peuplier; listed as NPSI
  inhibition de l'activité CAD (in words): inefficaces; also recorded: n'inhibent pas

## N-tert-butyl-methoxy-2 (Iminomethyl) - 4 phénol [BIP, reference compound]
CAD de peuplier
  Inhibition à 2mM %: 50%

## NOC(Cc1ccccc1)C(=O)O (racemic) [acide D,L-α-aminoxy-β -phényl-propionique]
Cultures de tabac
  réduction des phénols totaux: ~30%

## CC(C)[S+]([O-])Nc1ccccc1 (stereo not shown) [NPSP, N-(phényl) sulfinamoyl d'isopropyle, reference compound]
CAD de peuplier
  inhibition de l'activité CAD (in words): inefficaces; also recorded: n'inhibent pas
  inhibition at 2000 µM: 0%

## CC(C)(C)OC(=O)CS(=O)(=O)NC1CCCCC1 [compound 14, N-(Cyclohexyl)sulfamoyl acétate de tertiobutyle]
CAD de peuplier
  inhibition at 2000 µM: 0%

## O=C(O)CS(=O)(=O)Nc1ccccc1 [NPS, N-(phényl) sulfamoyle]
CAD de peuplier
  inhibition at 2000 µM: 45%

## O=C(O)CSCC(=O)c1ccccc1 [Acide oxo-5-phényl-5-thia-3, reference compound]
CAD de peuplier
  inhibition at 2000 µM: 40%

## CC(C)(C)OC(=O)C[S+]([O-])Nc1ccc([N+](=O)[O-])cc1O (stereo not shown) [nitro OH PAS]
CAD
  inhibition at 230 µM: 5%
  inhibition at 375 µM: 41%
CAD; Concentration finale dans le milieu 0,500 mM
  inhibition at 500 µM: 100%

## CC(C)(C)OC(=O)C[S+]([O-])Nc1ccc([N+](=O)[O-])cc1 (stereo not shown) [nitro PAS]
CAD; Concentration finale dans le milieu 0,125 mM
  inhibition at 125 µM: 14%
CAD; Concentration finale dans le milieu 0,188 mM
  inhibition at 188 µM: 28%
CAD
  inhibition at 230 µM: 68%
  inhibition at 375 µM: 100%

## CC(C)(C)OC(=O)C[S+]([O-])NC1CCCCC1 (stereo not shown) [compound 17, N-(Cyclohexyl)sulfinamoyl acétate de tertiobutyle]
CAD de peuplier
  inhibition at 2000 µM: 0%

## CC(C)(C)OC(=O)C[S+]([O-])Nc1ccccc1 (stereo not shown) [composé 1, N-(phényl)sulfinamoyl acétate de tertiobutyle]
CAD de peuplier
  inhibition at 2000 µM: 50%

## N-(Thiazolyl-2) Sulfanilamide [NTS, reference compound]
CAD de peuplier
  Inhibition à 2mM %: 55%

## (Hydroxy-4-methoxy-3-phényl)-3-Hydroxy-3-propanethiate de 5-phényle [HMHP, reference compound]
CAD de peuplier
  Inhibition à 2mM %: 40%
